# Where two headings read alike, the source gives them in different places.
# Legend:
# ΔSHP2^K325A = target: T1, ΔSHP2^K325A (Homo sapiens, UniProt Q06124, K325A); assay: PTP activity assay of K325A mutant; format: biochemical
# T1 construct: His‐ΔSHP2, encompassing the peptide from amino acids 205–593 retaining PTP activity; His; made in house; host or cells: E. coli BL21
# Experimental: Catalytic activity screening methods for PTPs using candidate compounds were performed as previously described.^[ [77] ^] In brief, soluble fusion PTP proteins, His‐ΔSHP2, encompassing the peptide from amino acids 205–593 retaining PTP activity, His‐ΔSHP2^K325A, His‐ΔSHP1, encompassing the peptide from amino acids 202–595 retaining PTP activity, His‐PTP1B, His‐HePTP, His‐VHR, and His‐TCPTP were cloned, expressed, and purified in E. coli. After determining protein concentration using bicinchoninic acid (BCA) assay kit, 1 µg fusion protein, 10 µM library compound were added in 100 µL reaction mixture (55 mM 4‐(2‐hydroxyethyl)‐1‐piperazineethanesulfonic acid [HEPES], 100 mM sodium chloride [NaCl], 0.5 mM ethylenediaminetetraacetic acid [EDTA], 1 mM dithiothreitol [DTT], 0.01% Triton X‐100, 0.002% bovine serum albumin [BSA], and 0.1% dimethyl sulfoxide [DMSO]) and incubated at 37 °C for 30 min in the dark, with Na3VO4 as positive control. The detection substrate DiFMUP (50 µM) was promptly added to each reaction and functioned at 37 °C for 30 min in the dark. The fluorescence intensity was then measured using Multimode Plate Reader (λa = 358 nm, λe = 455 nm, PerkinElmer, USA).
# A single‐point mutation assay of the pET32a‐ΔSHP2 plasmid was performed using the QuickMutation Site‐Directed Mutagenesis Kit (Beyotime, Shanghai, China). […]
# A549 and NCI‐H2122 cells = assay: Compound removal from culture media (western blotting); format: cell-based, human
# From the text: Due to the poor membrane permeability of SHP2 catalytic inhibitors,^[ [18], [30] ^] we examined the effect of embelin on SHP2 expression and phosphorylation after removing the compound from the culture media of A549 and NCI‐H2122 cells.
# SW620 cells = assay: Cell viability assay (CCK-8); format: cell-based; conditions: Homo sapiens, SW-620
# Experimental: (§1) supplies are listed in Supplementary Table S5. The relevant reagents for protein extraction from Escherichia coli are listed in Supplementary Table S6. Inhibitory effects of embelin on KRAS-mutant and wild-type cells are listed in Supplementary Table S7.
# (§2) For the adherent cell viability assay, cells in the logarithmic growth phase were seeded in 96-well culture plates at a density of 5×103 well-1 and incubated overnight. Diluted compounds or DMSO were added, or specific treatments were incubated at 37 °C and 5% CO2 for 24 h or 48 h. Cell viability was determined using CCK-8 or CellLightTM Cell Viability Assay Kit, according to the manufacturer's protocol. The luminescence signals of the treated samples were normalized to those of the DMSO group. […]
# HCC827 cells = assay: Cell viability assay (CCK-8); format: cell-based; conditions: Homo sapiens; HCC827, RAS-wild type, 24 h
# Experimental: as §1, §2
# [1] = test system: KRAS‐mutant NSCLC cells in 3D culture; assay: Cell proliferation in 3D cell culture (ATP chemiluminescence); format: cell-based
# Experimental: supplies are listed in Supplementary Table S5. […]
# For the adherent cell viability assay, cells in the logarithmic growth phase were seeded in 96-well culture plates at a density of 5×103 well-1 and incubated overnight. Diluted compounds or DMSO were added, or specific treatments were incubated at 37 °C and 5% CO2 for 24 h or 48 h. Cell viability was determined using CCK-8 or CellLightTM Cell Viability Assay Kit, according to the manufacturer's protocol. The luminescence signals of the treated samples were normalized to those of the DMSO group.
# For spherical cell viability assays, cells in the logarithmic growth phase were inoculated ata density of 4×10^3 well-1 into 96-well spherical cell microplates and incubated at 37 °C, 5% CO2 for 24 h or 48 h. Cell viability was measured using the CellTiter-Glo® Luminescent Cell Viability 3D Cell Viability Assay Kit, according to the manufacturer’s protocol. The remaining steps were the same as those described above. […]
# Figure S7. Targeting SHP2 and XIAP produces a synthetic lethal effect. (A) Effects of NSC-87877 on cell viability of A549 and NCI-H2122 cells after 24 and 48 h were determined using the CCK-8. Bars, ± SEM. […]
# tailed Student’s t-test).(K) Effects of SHP099 and GDC-0152 separately and in combination with […] on the cell viability of human KRAS-WT and -mutant cells were assessed using a colony formation assay. […]
# T1 sequence (Q06124 205-593 K325A): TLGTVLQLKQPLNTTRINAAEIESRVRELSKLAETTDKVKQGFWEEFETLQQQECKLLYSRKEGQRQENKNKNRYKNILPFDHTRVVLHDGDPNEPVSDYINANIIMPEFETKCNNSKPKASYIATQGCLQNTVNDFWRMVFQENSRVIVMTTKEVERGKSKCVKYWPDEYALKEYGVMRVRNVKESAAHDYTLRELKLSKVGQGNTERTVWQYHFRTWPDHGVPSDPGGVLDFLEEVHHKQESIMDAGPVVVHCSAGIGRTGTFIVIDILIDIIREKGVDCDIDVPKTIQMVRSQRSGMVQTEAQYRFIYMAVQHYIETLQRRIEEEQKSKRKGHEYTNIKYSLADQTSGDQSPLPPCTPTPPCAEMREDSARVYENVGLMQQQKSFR
SMILES,inhibitory effect on activity of ΔSHP2^K325A versus wild-type ΔSHP2 (ΔSHP2^K325A),membrane permeability (inferred from removal after 6 h vs continuous 24 h treatment) (A549 and NCI‐H2122 cells),"IC50 (SW620 cells; SW620, 48 h, read-out: IC50 at 48 h) [µM]","IC50 (SW620 cells; SW620, KRAS G12V, 24 h, read-out: IC50 at 24 h) [µM]",IC50 (HCC827 cells) [µM],effect on cell proliferation in 3D cell culture [1]
CCCCCCCCCCCC1=C(O)C(=O)C=C(O)C1=O [Embelin],notably diminished the inhibitory effect,strong membrane permeability,5.06 ± 0.45,18.6 ± 0.4,4.95 ± 0.28,
CC1(N)CCN(c2cnc(-c3cccc(Cl)c3Cl)c(N)n2)CC1 [SHP099],,,,,,partially inhibited cell proliferation

# Source: PMC12005787, “Synthetic Lethality of SHP2 and XIAP Suppresses Proliferation and Metastasis in KRAS‐mutant Nonsmall Cell Lung Cancer” (Advanced Science, 2025)
